Data on 20 compounds can be found in publication PMC8837726 (Chirality, 2021).

pEC50: −log10 of the molar value. Like-named read-outs stand apart in the source and are kept apart here.

The subject of series [1] is GLP-1 release from hNCI-H716 colorectal adenocarcinoma cell line. Briefly: CRC EC50 in GLP-1 release from hNCI-H716 cells. The series is classed as cell-based. Particulars: Homo sapiens, read-out: hNCI-H716 GLP1 Sec CRC EC50.
Series [2] deals with GLP-1 secretion from mSTC-1 cells. Kind of series: Concentration-response curve. Format: cell-based, mouse.
The nature of series [3]: in vitro. Particulars: human, hNCI-H716 colorectal adenocarcinoma cells.
Series [4] is described as follows: in vitro. Conditions: mouse, mSTC-1 cells.
Series [5] has as its system GLP-1 secretion from mouse secretin tumor (mSTC-1) intestinal enteroendocrine cells. Briefly: ELISA primary assay: GLP-1 secretion from mSTC-1 cells, percent stimulation. The series is classed as cell-based. Conditions: for mSTC-1 GLP1 Sec %Stim@2 μM: 2 μM test compound; for mSTC-1 GLP1 Sec %Stim@2 μM / mSTC-1 GLP1 Sec %Stim@20 μM: mSTC-1 cells, ELISA; for mSTC-1 GLP1 Sec %Stim@20 μM: 20 μM test compound; for activation at 20 µM: Mus musculus, read-out: mSTC-1 GLP1 Sec %Stim@20 μM.

Setting [6] is: Mus musculus, read-out: mSTC-1 GLP1 Sec CRC EC50, mSTC-1 cells, concentration-response curve.
Where [7] appears, read: read-out: mSTC-1 GLP1 Sec CRC EC50, mSTC-1 cells, concentration-response curve.

As to `COc1ccc2c(c1)[C@@H](NC(=O)OCc1ccccc1)[C@H](C)[C@@H](c1ccccc1)N2` [Compound 5a, benzyl (2S,3R,4S)-6-methoxy-3-methyl-2-phenyl-1,2,3,4-tetrahydroquinolin-4-ylcarbamate], the pEC50 was below 4.40 in series [1]; above 5.00 in series [2] (setting [6]); 5.28 in series [2] (setting [7]); below 4.40 in the series “in vitro [3]”; below 4.40 in the series “in vitro [4]”. Moreover, in series [5], the “mSTC-1 GLP1 Sec %Stim@2 μM” value is reported as 2%. The “mSTC-1 GLP1 Sec %Stim@20 μM” value in series [5] worked out at 68%.

`COc1ccc2c(c1)[C@@H](NC(=O)OCc1ccccc1)[C@H](C)[C@@H](C(C)C)N2` [Compound 5b, Benzyl ((2R,3R,4S)-2-isopropyl-6-methoxy-3-methyl-1,2,3,4-tetrahydroquinolin-4-yl)carbamate]: the pEC50 was below 4.40 in series [1], 4.97 in series [2] (setting [6]), below 4.40 in the series “in vitro [3]” and below 4.40 in the series “in vitro [4]”. In addition, the “mSTC-1 GLP1 Sec %Stim@2 μM” value in series [5] was 0%. In addition, the “mSTC-1 GLP1 Sec %Stim@20 μM” value in series [5] amounted to 98%.

As for `CC[C@H]1Nc2ccc(NC(=O)OC(C)(C)C)cc2[C@@H](NC(=O)OCc2ccccc2)[C@@H]1C` [Compound 5e, Benzyl tert-butyl ((2R,3R,4S)-2-ethyl-3-methyl-1,2,3,4-tetrahydroquinoline-4,6-diyl)dicarbamate], in series [5], the activation at 20 µM was 0%.

`COc1ccc2c(c1)[C@@H](NC(=O)OCc1ccccc1)[C@H](C)[C@@H](c1cccnc1)N2` [Compound 5f, Benzyl (2S,3R,4S)-6-methoxy-3-methyl-2-(pyridin-3-yl)-1,2,3,4-tetrahydroquinolin-4-ylcarbamate]: in series [5], the “mSTC-1 GLP1 Sec %Stim@2 μM” value stood at 0% and the “mSTC-1 GLP1 Sec %Stim@20 μM” value was found to be 22%.

For the compound `COc1ccc2c(c1)[C@@H](NC(=O)OCc1ccccc1)[C@H](C)[C@@H](c1ccccc1)N2Cc1cccc(F)c1` [Compound 6a, Benzyl(2S,3S,4S)-1-(3-fluorobenzyl)-6-methoxy-3-methyl-2phenyl-1,2,3,4-tetrahydroquinolin-4-ylcarbamate], the pEC50 (in series [1]; in series [2] (setting [6]); in the series “in vitro [3]”; in “in vitro [4]”) was below 4.40 each time. For the same compound, the “mSTC-1 GLP1 Sec %Stim@2 μM” value in series [5] is reported as 8%. For the same compound, the “mSTC-1 GLP1 Sec %Stim@20 μM” value in series [5] is reported as 40%.

Take `COc1ccc2c(c1)[C@@H](NC(=O)OCc1ccccc1)[C@H](C)[C@@H](c1ccccc1)N2Cc1ccccn1` [Compound 6c, Benzyl (2S,3S,4S)-6-methoxy-3-methyl-2-phenyl-1-(pyridin-2-ylmethyl)-1,2,3,4-tetrahydroquinolin-4-ylcarbamate]: the activation at 20 µM in series [5] was found to be 0%.

With `COc1ccc2c(c1)[C@@H](NC(=O)OCc1ccccc1)[C@H](C)[C@@H](c1ccccc1)N2C(=O)NC(C)C` [Compound 6g, Benzyl ((2S,3S,4S)-1-(isopropylcarbamoyl)-6-methoxy-3-methyl-2-phenyl-1,2,3,4-tetrahydroquinolin-4-yl)carbamate], the activation at 20 µM in series [5] was 0%.

`COc1ccc2c(c1)[C@@H](NCc1nccs1)[C@H](C)[C@@H](c1ccccc1)N2C(=O)NC(C)C` [Compound 8d, (2S,3S,4S)-N-Isopropyl-6-methoxy-3-methyl-2-phenyl-4-((thiazol-2-ylmethyl)amino)-3,4-dihydroquinoline-1(2H)-carboxamide]: the pEC50 (in series [1]; in series [2] (setting [6]); in the series “in vitro [3]”; in “in vitro [4]”) was below 4.40 in each case. The “mSTC-1 GLP1 Sec %Stim@2 μM” value in series [5] is on record as 0%. Further, in series [5], the “mSTC-1 GLP1 Sec %Stim@20 μM” value is on record as 28%.

`COc1ccc2c(c1)[C@@H](NCc1ccccn1)[C@H](C)[C@@H](c1ccccc1)N2C(=O)NC(C)C` [Compound 8e, (2S,3S,4S)-N-isopropyl-6-methoxy-3-methyl-2-phenyl-4-((pyridin-2-ylmethyl)amino)-3,4-dihydroquinoline-1(2H)-carboxamide]: in series [5], the activation at 20 µM turned out to be 0%.

Take `COc1ccc2c(c1)[C@@H](NC(=O)c1c(C)noc1C)[C@H](C)[C@@H](c1ccccc1)N2C(=O)NC(C)C` [Compound 8f, N-((2S,3S,4S)-1-(Isopropylcarbamoyl)-6-methoxy-3-methyl-2-phenyl-1,2,3,4-tetrahydroquinolin-4-yl)-3,5-dimethylisoxazole-4-carboxamide]: the activation at 20 µM in series [5] stood at 0%.

As to `COc1ccc2c(c1)[C@@H](NC(C)=O)[C@H](C)[C@@H](c1ccccc1)N2C(=O)Nc1ccc(C(F)(F)F)cc1` [Compound 8i, (2S,3S,4S)-4-Acetamido-6-methoxy-3-methyl-2-phenyl-N-(4-(trifluoromethyl)phenyl)-3,4-dihydroquinoline-1(2H)-carboxamide], the activation at 20 µM in series [5] came to 0%.

Turning to `COc1ccc2c(c1)[C@@H](NC(=O)c1c(C)noc1C)[C@H](C)[C@@H](c1ccccc1)N2Cc1cccc(F)c1` [Compound 8j, N-((2S,3S,4S)-1-(3-Fluorobenzyl)-6-methoxy-3-methyl-2-phenyl-1,2,3,4-tetrahydroquinolin-4-yl)-3,5-dimethylisoxazole-4-carboxamide], in series [5], the activation at 20 µM worked out at 0%.

Consider `COc1ccc2c(c1)[C@@H](NS(C)(=O)=O)[C@H](C)[C@@H](c1ccccc1)N2Cc1cccc(F)c1` [Compound 8k, N-((2S,3R,4S)-1-(3-Fluorobenzyl)-6-methoxy-3-methyl-2-phenyl-1,2,3,4-tetrahydroquinolin-4-yl)methanesulfonamide], for which the pEC50 in series [1] is below 4.40; in series [2] (setting [6]), above 5.00; in series [2] (setting [7]), 5.08; in “in vitro [3]”, below 4.40; in “in vitro [4]” it was below 4.40. The “mSTC-1 GLP1 Sec %Stim@2 μM” value in series [5] is reported as 0%. Further, the “mSTC-1 GLP1 Sec %Stim@20 μM” value in series [5] was determined as 53%.

With `CC[C@H]1Nc2ccc(OC)cc2[C@@H](NS(C)(=O)=O)[C@@H]1C` [Compound 8l, N-((2R,3R,4S)-2-Ethyl-6-methoxy-3-methyl-1,2,3,4-tetrahydroquinolin-4-yl)methanesulfonamide], the activation at 20 µM in series [5] worked out at 0%.

For `COc1ccc2c(c1)[C@@H](NS(C)(=O)=O)[C@H](C)[C@@H](C(C)C)N2` [Compound 8m, N-((2R,3R,4S)-2-Isopropyl-6-methoxy-3-methyl-1,2,3,4-tetrahydroquinolin-4-yl)methanesulfonamide], the activation at 20 µM in series [5] is 0%.

For the compound `CC[C@H]1Nc2ccc(OC)cc2[C@@H](NCc2nccs2)[C@@H]1C` [Compound 8n, (2R,3R,4S)-2-Ethyl-6-methoxy-3-methyl-N-(thiazol-2-ylmethyl)-1,2,3,4-tetrahydroquinolin-4-amine], the pEC50 in series [1] was below 4.40; in series [2] (setting [6]), 4.58; in “in vitro [3]” it was below 4.40; in the series “in vitro [4]” it was below 4.40. The “mSTC-1 GLP1 Sec %Stim@2 μM” value in series [5] is on record as 0%. In addition, in series [5], the “mSTC-1 GLP1 Sec %Stim@20 μM” value stood at 49%.

Take `COc1ccc2c(c1)[C@@H](NCc1nccs1)[C@H](C)[C@@H](C(C)C)N2` [Compound 8o, (2R,3R,4S)-2-Isopropyl-6-methoxy-3-methyl-N-(thiazol-2-ylmethyl)-1,2,3,4-tetrahydroquinolin-4-amine]: the pEC50 in series [1] was below 4.40; in series [2] (setting [6]), 4.77; in “in vitro [3]”, below 4.40; in “in vitro [4]” it was below 4.40. The “mSTC-1 GLP1 Sec %Stim@2 μM” value in series [5] was 0%. For the same compound, the “mSTC-1 GLP1 Sec %Stim@20 μM” value in series [5] is on record as 61%.

For `COc1ccc2c(c1)[C@@H](N(Cc1nccs1)Cc1nccs1)[C@H](C)[C@@H](C(C)C)N2` [Compound 8p, (2R,3R,4S)-2-Isopropyl-6-methoxy-3-methyl-N,N-bis(thiazol-2-ylmethyl)-1,2,3,4-tetrahydroquinolin-4-amine], the pEC50 is below 4.40 in series [1], 4.66 in series [2] (setting [6]), below 4.40 in the series “in vitro [3]” and below 4.40 in the series “in vitro [4]”. The “mSTC-1 GLP1 Sec %Stim@2 μM” value in series [5] is on record as 0%. Moreover, the “mSTC-1 GLP1 Sec %Stim@20 μM” value in series [5] is listed as 80%.

Turning to `CC[C@H]1Nc2ccc(NC(C)=O)cc2[C@@H](NS(C)(=O)=O)[C@@H]1C` [Compound 8q, N-((2R,3R,4S)-2-Ethyl-3-methyl-4-(methylsulfonamido)-1,2,3,4-tetrahydroquinolin-6-yl)acetamide], in series [5], the “mSTC-1 GLP1 Sec %Stim@2 μM” value came out at 0% and the “mSTC-1 GLP1 Sec %Stim@20 μM” value is on record as 18%.

As for `C[C@@H]1[C@@H](c2ccccc2)Nc2ccc(-c3ccccc3)cc2[C@H]1NC(=O)OCc1ccccc1` [Compound 9, Benzyl (2S,3R,4S)-3-methyl-2,6-diphenyl-1,2,3,4-tetrahydroquinolin-4-ylcarbamate], the pEC50 was below 4.40 in series [1], 5.66 in series [2] (setting [6]), below 4.40 in “in vitro [3]” and below 4.40 in the series “in vitro [4]”. Further, the “mSTC-1 GLP1 Sec %Stim@2 μM” value in series [5] is 82%. Besides, in series [5], the “mSTC-1 GLP1 Sec %Stim@20 μM” value stood at 99%.
